What was measured:
[1] = test system: ablation nephropathic rats; assay: Proteinuria in 5/6 nephrectomized (ablation nephropathic) rats; format: in vivo, Sprague Dawley rats; conditions: for 24-hour urinary excretion of protein: Weeks 9-16 post 5/6 nephrectomy, 762 nmoles/kg/day oral for 8 weeks, mean ± SEM
Protocol: Five-sixths nephrectomy was carried out as described by Morrison (11). Briefly, each animal was anaesthetized with 7% w/v chloral hydrate (0.4 g/kg, i.p.). An incision was made in the ventral abdominal wall to access the kidneys. Right nephrectomy was performed and the cranial and caudal third of the left kidney were cut off. Tissue adhesive (Histoccryl, B. Braun) was used to seal the cut ends of the left kidney and prevent bleeding. In this way 5/6 of the renal parenchyma was removed. This model results in focal and segmental glomerulosclerosis, resembling renal lesions in humans like oligomeganephronia, membranous nephropathy, minimal change nephritis, proliferative glomerulonephritis, analgesic nephropathy, diabetes mellitus, unilateral nephrectomy, cortical necrosis, and unilateral renal agenesis (9).
Following the operation, each animal was placed in a metabolic cage for 24 hours once a week for a duration of 8 weeks. The 24-hour urine output and the concentration of protein in the urine were measured. After the 8th week, the animals were randomly divided into two groups (8 animals per group). Animals in one of the group (the treatment group) were orally administered 762 nmoles/kg/day of des-Asp-angiotensin I dissolved in 0.5 ml of saline via a 1-ml syringe with a blunted needle for a period of 8 weeks. The dose of 762 nmoles/kg/day was calculated based on the maximum effective oral anti-cardiac hypertrophic dose (250 nmole per rat of average weight of 328 g) in the original parent patent. Animals in the other group (the control group) were similarly administered with 0.5 ml of saline. Weekly measurement of 24-hour urine output and the concentration of protein in the urine in these animals were carried out for another 8 weeks. The protocol was designed based on our preliminary observation that urinary excretion of protein in the 5/6 nephrectomized rats commenced to increase above the normal value in 7th to 8th week post nephrectomy. A repeat of the experiment with 12 nephrectomized rats per group was carried out.
Data were expressed as mean±SEM. […]

[2] = test system: cardiac hypertrophy; conditions: rat of average weight of 328 g, from the original parent patent; cited from earlier work

des-Aspartate angiotensin I [des-Asp-angiotensin I]
24-hour urinary excretion of protein ([1]; 8 rats, first experiment, saline control 37.2 ± 2.3, p = 0.024): *28.7 ± 2.5 mg
24-hour urinary excretion of protein ([1]; 12 rats, repeat experiment, saline control 51.7 ± 4.7, p = 0.048): *39.6 ± 3.3 mg
Anti-proteinuric action (progressive development of proteinuria) ([1]; ablation nephropathic rats, oral dose of 762 nmoles/kg/day): effective agent in attenuating the progressive development of proteinuria
Maximum effective oral anti-cardiac hypertrophic dose [2]: 250 nmole per rat

Source: patent publication US20030086920A1, “Use of des-Aspartate-angiotensin I as an agent for the treatment and prevention of glomerulosclerosis and renal failure” (priority 2000, published 2003)
